{"source": "paper PMC5808195", "about": "(Frontiers in Pharmacology, 2018)", "key": {"[1]": {"molecular_target": "T1, rat cerebral neuronal membranes (histamine H1 binding sites) (Rattus norvegicus, UniProt P31390)", "T1 construct": "native receptors contained in rat cerebral neuronal membranes; from tissue; host or cells: cerebral tissue of male Wistar rats, membrane fraction (40,000 x g pellet)", "T1 sequence (P31390 whole entry)": "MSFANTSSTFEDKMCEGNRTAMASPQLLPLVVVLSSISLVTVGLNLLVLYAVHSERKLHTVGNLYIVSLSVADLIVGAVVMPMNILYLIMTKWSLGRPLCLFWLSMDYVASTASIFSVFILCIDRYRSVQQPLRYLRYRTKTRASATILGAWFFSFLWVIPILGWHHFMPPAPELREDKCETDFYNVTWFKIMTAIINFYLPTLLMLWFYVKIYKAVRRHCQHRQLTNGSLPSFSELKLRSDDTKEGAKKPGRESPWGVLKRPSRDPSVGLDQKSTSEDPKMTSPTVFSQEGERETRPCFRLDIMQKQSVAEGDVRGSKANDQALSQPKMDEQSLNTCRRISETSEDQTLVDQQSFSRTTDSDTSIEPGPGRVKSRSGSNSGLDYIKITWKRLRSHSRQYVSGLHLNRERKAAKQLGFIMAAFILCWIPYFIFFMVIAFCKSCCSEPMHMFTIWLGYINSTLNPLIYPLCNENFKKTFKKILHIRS", "experiment": "Competitive displacement of [^3H]pyrilamine binding, rat cerebral neuronal membranes", "details": "for displacement of specific [^3H]pyrilamine binding (in words): rat cerebral neuronal membranes, 20 nM [^3H]pyrilamine"}, "[2]": {"molecular_target": "T2, synthesized WT-HRH1 proteoglycerosomes (Homo sapiens, UniProt P35367)", "T2 sequence (P35367 whole entry)": "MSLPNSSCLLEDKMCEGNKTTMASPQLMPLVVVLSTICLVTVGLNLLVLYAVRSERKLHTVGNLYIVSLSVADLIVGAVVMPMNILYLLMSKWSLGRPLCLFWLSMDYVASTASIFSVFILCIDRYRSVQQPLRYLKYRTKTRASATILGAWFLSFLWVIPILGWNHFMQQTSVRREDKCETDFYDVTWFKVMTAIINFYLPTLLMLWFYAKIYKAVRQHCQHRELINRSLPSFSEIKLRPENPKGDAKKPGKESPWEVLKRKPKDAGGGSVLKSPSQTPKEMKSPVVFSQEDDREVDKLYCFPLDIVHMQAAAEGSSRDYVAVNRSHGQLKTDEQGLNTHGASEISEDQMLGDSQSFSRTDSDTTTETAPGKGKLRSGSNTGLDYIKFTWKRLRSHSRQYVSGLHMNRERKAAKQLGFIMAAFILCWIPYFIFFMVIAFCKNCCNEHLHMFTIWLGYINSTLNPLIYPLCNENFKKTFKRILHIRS", "excerpt": "(§1) Eight different concentrations of each cold competitor were used in the competitive binding studies. […] The data are based on experiments performed in triplicate. The experimental conditions were the same as those used in the saturation studies."}, "[3]": {"molecular_target": "T2, synthesized WT-HRH1 proteoglycerosomes", "experiment": "biochemical", "excerpt": "as §1"}}, "note": "Where a name gives a salt, the structure may show the parent alone. Read-outs that look alike come from different tables or passages of the source.", "data": [{"smiles": "S=C(NC1CCCCC1)N1CCC(c2cnc[nH]2)CC1", "note": "[thioperamide]", "values": [{"measurement": "displacement of specific [^3H]pyrilamine binding (in words)", "setting": "[1]", "result": "no displacement ability"}, {"measurement": "displacement of specific [^3H]pyrilamine binding (in words)", "setting": "[2]", "result": "no displacement ability"}]}, {"smiles": "NC1=NCC2c3ccccc3Cc3ccccc3N12", "note": "(centres unmarked) [Epinastine, epinastine hydrochloride]", "values": [{"measurement": "Ki", "setting": "[1]", "result": "0.288 ± 0.0615", "unit": "nM"}, {"measurement": "displacement of specific [^3H]pyrilamine binding (in words)", "setting": "[1]", "result": "concentration-dependent inhibition"}, {"measurement": "displacement of specific [^3H]pyrilamine binding (in words)", "setting": "[2]; synthesized receptors, 20 nM [^3H]pyrilamine", "result": "concentration-dependent inhibition"}, {"measurement": "Ki", "setting": "[3]", "result": "0.332 ± 0.0989", "unit": "nM"}]}, {"smiles": "C[C@@H](N)Cc1cnc[nH]1", "note": "[alpha methylhistamine, alpha-methylhistamine]", "values": [{"measurement": "displacement of specific [^3H]pyrilamine binding (in words)", "setting": "[1]", "result": "did not inhibit"}, {"measurement": "displacement of specific [^3H]pyrilamine binding (in words)", "setting": "[2]", "result": "did not inhibit"}]}]}
